Measured values taken from patent US20240099989A1, “AGENT FOR PREVENTING OR IMPROVING PERIPHERAL NEUROPATHY” (KINKI UNIVERSITY, priority 2021, published 2024).

Tested on: Diabetic Peripheral Neuropathy in a Mouse Induced by Streptozotocin
Experiment: Von Frey test (0.16 g filament), diabetic peripheral neuropathy induced by streptozotocin
Type: in vivo, C57BL/6J mice
Conditions: time course
Description: On Day 8 of acclimation, the mice in the group receiving streptozotocin and the group receiving streptozotocin+1 mg/kg xylitol were administered with streptozotocin at a dose of 200 mg/kg. A massive dose of streptozotocin destroys pancreatic cells in the mice. As a result, insulin is no longer secreted, and thus, diabetes can be developed in the mice. This day was designated as the first day of the administration (Day 0). Note that streptozotocin was administered only on the first day of administration. […]
Six to seven-week-old male C57BL/6J mice were used for the tests as with Example 7. All the mice were acclimated for seven days after arrival. Then, the mice were grouped into the following four groups: a control group, a group receiving streptozotocin, a group receiving 1 mg/kg xylitol, and a group receiving streptozotocin+1 mg/kg xylitol. Each group consisted of nine mice.
The mice in the group receiving 1 mg/kg xylitol were orally administered with xylitol at a dose of 1 mg/kg daily from Day 0. The mice in the group receiving streptozotocin+1 mg/kg xylitol were orally administered with xylitol at a dose of 1 mg/kg daily from Day 21 of administration.
The mice in the four groups described in (1) of the present example (Example 8) were placed in a cage, and the avoidance response frequency (score) was measured by pressing a filament with a bending force of 0.16 g against the back of the hind paw. […]
On Day 8 of acclimation, the mice in the group receiving streptozotocin and the group receiving streptozotocin+5 mg/kg D-threitol were administered with streptozotocin at a dose of 200 mg/kg. A massive dose of streptozotocin destroys pancreatic cells in the mice. As a result, insulin is no longer secreted, and thus, diabetes can be developed in the mice. This day was designated as the first day of the administration (Day 0). Note that streptozotocin was administered only on the first day of administration.
The mice in the group receiving 5 mg/kg D-threitol and the group receiving streptozotocin+5 mg/kg D-threitol were orally administered with D-threitol at a dose of 5 mg/kg daily from Day 0. […]
The mice in the group receiving 5 mg/kg D-threitol were orally administered with D-threitol at a dose of 5 mg/kg daily from Day 0. […]
The mice in the four groups described in (1) of the present example (Example 10) were placed in a cage, and the avoidance response frequency (score) was measured by pressing a filament with a bending force of 0.16 g against the back of the hind paw. […]
The mice in the four groups described in (1) of the present example (Example 11) were placed in a cage, and the avoidance response frequency (score) was measured by pressing a filament with a bending force of 0.16 g against the back of the hind paw. […]

[1] = streptozotocin 200 mg/kg + 5 mg/kg orally daily from Day 21 (therapy)

## OC[C@@H](O)[C@H](O)CO [D-threitol]
[1]
  avoidance response score: reduced from Day 24 onwards

## OC[C@H](O)[C@H](O)[C@H](O)[C@@H](O)CO [L-talitol]
[1]
  avoidance response score: reduced from Day 21 onwards

## OC[C@@H](O)[C@H](O)[C@@H](O)CO [xylitol]
Streptozotocin 200 mg/kg + 1 mg/kg orally daily from Day 21 (therapy)
  avoidance response score: reduced from Day 21 onwards
